In US20240247298A1, “METHOD FOR DETECTING LIVE LACTIC ACID BACTERIA WITH CARBOHYDRATE METABOLISM ACTIVITY” (KABUSHIKI KAISHA YAKULT HONSHA, priority 2021, published 2024):

Columns and labels:
Type in all cases: cell-based, Lacticaseibacillus paracasei YIT 9029
[1] = test system: LcS; test: cF excretion activity by addition of various saccharides of LcS (cFDA/PI double staining, flow cytometry); details: LcS from New Yakult suspended in 1% saccharide solution; cFDA 50 μM, PI 30 μM
Method: (§1) A beverage or food containing LcS (New Yakult: manufactured by Yakult Honsha Co., Ltd.) stored at about 4° C. within 16 days after production was diluted 10-fold with DPBS, then washed by centrifugation three times with DPBS, and the cell pellet was collected. The cell pellet obtained above was suspended in a 1% (V/W) solution in which a saccharide shown in Table 1 was dissolved in purified water. Further, the suspension was diluted with DPBS so that the cell concentration in the suspension was about 10^6 cells/mL, and cFDA was added thereto at a final concentration of 50 μM, and the resultant was left to stand at 30° C. for 15 minutes. Subsequently, propidium iodide was added thereto at a final concentration of 30 μM, and the resultant was left to stand at room temperature for 15 minutes, and then subjected to FACSAriaTM fusion (manufactured by Becton Dickinson) to measure the cF fluorescence intensity. A case where 90% or more of the total bacterial cells were counted as cF^- was determined to have cF excretion activity. In Table 1, those determined to have cF excretion activity are indicated by +, and those determined to have no cF excretion activity are indicated by -. The assimilation of a saccharide was examined using AP[…] (manufactured by bioMérieux Japan Co., Ltd.), which is a kit for identifying bacteria. A saccharide that can be assimilated by LcS is indicated by +, and a saccharide that cannot be assimilated by LCS is indicated by -.

[2] = test system: LcS; test: Assimilation of a saccharide examined using API50cH; set-up: key: A saccharide that can be assimilated by LcS is indicated by +; a saccharide that cannot be assimilated by LCS is indicated by −; details: assimilation by LcS, API50cH kit
Method: as §1, with “The” for “A beverage or food containing LcS (New Yakult: manufactured by Yakult Honsha Co., Ltd.) stored at about 4° C. within 16 days after production was diluted 10-fold with DPBS, then washed by centrifugation three times with DPBS, and the cell pellet was collected. The”

[3] = test system: LcS; test: Time course of cF accumulation and cF excretion of LcS
Method: A cultured bacterial solution of LcS in MRS medium was washed by centrifugation with Dulbecco's PBS (DPBS: manufactured by Thermo Fisher Scientific, Inc.), thereby removing saccharides. CFDA was added to the DPBS suspension of LcS obtained above at a final concentration of 50 μM (t=0), and cF accumulation from 0 to 20 minutes thereafter was examined by Gallios. In addition, to the DPBS suspension of LcS obtained above, CFDA was added at a final concentration of 50 μM, and the resultant was left to stand at 30° C. for 30 minutes to allow cF to accumulate in the bacterial cells. Subsequently, glucose was added at a final concentration of 10 mM (t=0), and cF excretion in 15 minutes thereafter was examined. Further, to the DPBS suspension of LcS obtained above, CFDA was added at a final concentration of 50 μM, and the resultant was left to stand at 30° C. for 30 minutes to allow cF to accumulate in the bacterial cells. Subsequently, glucose was added at a final concentration of 0.001 mM, 0.01 mM, 0.1 mM, or 1 mM (t=0), and cF excretion in 15 minutes thereafter was examined.

Compound | cF excretion activity [1] | Assimilability [2] | also measured
C[C@H](O)[C@H](O)[C@@H](O)[C@@H](O)C=O [L-rhamnose] | − (those determined to have no cF excretion activity are indicated by −) | − | 
O=C[C@H](O)[C@@H](O)[C@H](O)[C@H](O)CO [D-glucose] | + (A case where 90% or more of the total bacterial cells were counted as cF^− was determined to have cF excretion activity) | + | cF excretion ([3]; glucose final concentration 0.001 mM): significant delay in excretion; cF excretion ([3]; glucose final concentration 0.01 mM): slight delay in excretion; time after which cF began to be rapidly excreted ([3]; glucose final concentration 10 mM, LcS with cF accumulated in advance): about 3 minutes
carboxyfluorescein diacetate [cFDA] |  |  | time after which cF accumulation amount was almost saturated ([3]; cFDA 50 μM, no sugar, DPBS suspension of LcS): 20 min
O=CC[C@@H](O)[C@@H](O)[C@H](O)CO [2-deoxy-D-galactose] | − (those determined to have no cF excretion activity are indicated by −) |  | 
OC[C@H]1O[C@@](CO)(O[C@H]2O[C@H](CO)[C@@H](O)[C@H](O)[C@H]2O)[C@@H](O)[C@@H]1O [sucrose] | − (those determined to have no cF excretion activity are indicated by −) | + | 
O=C[C@H](O)[C@@H](O)[C@@H](O)CO [L-arabinose] | − (those determined to have no cF excretion activity are indicated by −) | − | 
O=C[C@H](O)[C@@H](O)[C@@H](O)[C@H](O)CO [D-galactose] | + (A case where 90% or more of the total bacterial cells were counted as cF^− was determined to have cF excretion activity) | + | 
O=C[C@@H](O)[C@@H](O)[C@H](O)[C@H](O)CO [D-mannose] | + (A case where 90% or more of the total bacterial cells were counted as cF^− was determined to have cF excretion activity) | + | 
OC[C@H]1O[C@@H](O[C@H]2[C@H](O)[C@@H](O)C(O)O[C@@H]2CO)[C@H](O)[C@@H](O)[C@H]1O (stereo partly shown) [Lactose] | − (those determined to have no cF excretion activity are indicated by −) | + | 
O=C(CO)[C@@H](O)[C@H](O)[C@@H](O)CO [L-sorbose] | − (those determined to have no cF excretion activity are indicated by −) | + | 
O=CC[C@@H](O)[C@H](O)[C@H](O)CO [2-deoxy-D-glucose] | − (those determined to have no cF excretion activity are indicated by −) |  | 
